According to patent publication US20140275277A1, “PHARMACEUTICAL COMPOSITION OF S-KETAMINE HYDROCHLORIDE” (JANSSEN PHARMACEUTICA NV, priority 2013, published 2014):

How the values were obtained:
M. luteus = assay: Full AET Challenge Test (Example 2); type: cell-based, Micrococcus Luteus; details: after 28 days; spike 10^5-10^6 CFU/ml
Description: (§1) The formulations listed in Table 3 were additionally subjected to a Full AET challenge, with results for the individual formulations are shown in Tables 5-8, below. Additionally, Table 9 below, provides results for a Full AET challenge of a reference formulation containing 0.00 mg/mL S-ketamine hydrochloride, denatonium benzoate (to mimic the taste of the S-ketamine HCl formulation(s)), and adjusted to pH 5.21 with 1N NaOH.

[1] = system: environmental isolate Staphylococcus haemolyticus; assay: Microbial challenge test (Example 1); type: cell-based; details: spike 10^5-10^6 CFU/ml
From the text: A challenge test was initiated to investigate whether the formulation could prevent microorganisms from proliferating. The challenge test consisted of challenging the formulation with a prescribed inoculum of microorganisms. The inoculated formulation was then stored at room temperature and at specified time intervals a sample was withdrawn to count the microorganisms in the sample.

S. aureus = assay: Full AET Challenge Test (Example 2); type: cell-based, Staphylococcus aureus; details: after 28 days; spike 10^5-10^6 CFU/ml
Description: as §1

P. aeruginosa = assay: Full AET Challenge Test (Example 2); type: cell-based, Pseudomonas aeruginosa; details: after 28 days; spike 10^5-10^6 CFU/ml
Description: as §1

E. coli = assay: Full AET Challenge Test (Example 2); type: cell-based, Escherichia coli; details: after 28 days; spike 10^5-10^6 CFU/ml
Description: as §1

A. brasiliensis = assay: Full AET Challenge Test (Example 2); type: cell-based, Aspergillus brasiliensis; details: after 28 days of incubation at room temperature; spike 10^5-10^6 CFU/ml
Description: as §1

C. albicans = assay: Full AET Challenge Test (Example 2); type: cell-based, Candida albicans; details: after 28 days; spike 10^5-10^6 CFU/ml
Description: as §1

CN[C@]1(c2ccccc2Cl)CCCCC1=O.Cl [S-ketamine hydrochloride, (S)-2-(2-chlorophenyl)-2-(methylamino)cyclohexanone hydrochloride]
Effect on the original spike of Micrococcus Luteus, in words (M. luteus): strong antimicrobial properties
Effect on the original spike of Staphylococcus haemolyticus, in words [1]: strong antimicrobial properties
Effect on the original spike of Staphylococcus aureus, in words (S. aureus): strong antimicrobial properties
Effect on the original spike of Pseudomonas aeruginosa, in words (P. aeruginosa): strong antimicrobial properties
Effect on the original spike of Escherichia coli, in words (E. coli): strong antimicrobial properties
Effect on the original spike of Aspergillus brasiliensis, in words (A. brasiliensis): some inhibitory activity
Effect on the original spike of Candida albicans, in words (C. albicans): strong antimicrobial properties
